# Data taken from ChEMBL document CHEMBL4359906, “Design and synthesis of new N-terminal fatty acid modified-antimicrobial peptide analogues with potent in vitro biological activity” (Eur J Med Chem, 2019).
# The source made the active and inactive calls. The calls are words filed in the database; no cut-off is given here. Where a SMILES comes first, the peptide text is derived from it.
# Key:
# [1] = system: Escherichia coli; test: Antibacterial activity against Escherichia coli ATCC 25922 after 18 hrs by CLSI based broth microdilution method; assay type: functional; conditions: ATCC 25922, 18 h
# [2] = system: Escherichia coli; test: Antibacterial activity against Escherichia coli ATCC 43837 after 18 hrs by CLSI based broth microdilution method; assay type: functional; conditions: ATCC 43837, 18 h
# [3] = system: Klebsiella pneumoniae; test: Antibacterial activity against Klebsiella pneumoniae ATCC 700603 after 18 hrs by CLSI based broth microdilution method; assay type: functional; conditions: Klebsiella pneumoniae, 700603, 18 h
# [4] = system: Pseudomonas aeruginosa; test: Antibacterial activity against Pseudomonas aeruginosa ATCC 27853 after 18 hrs by CLSI based broth microdilution method; assay type: functional; conditions: ATCC 27853, 18 h
# [5] = system: Staphylococcus aureus; test: Antibacterial activity against Staphylococcus aureus ATCC 25923 after 18 hrs by CLSI based broth microdilution method; assay type: functional; conditions: ATCC 25923, 18 h
# [6] = system: Staphylococcus aureus; test: Antibacterial activity against methicillin-resistant Staphylococcus aureus 936 after 18 hrs by CLSI based broth microdilution method; assay type: functional; conditions: Staphylococcus aureus, 936, 18 h
# [7] = system: Bacillus subtilis; test: Antibacterial activity against Bacillus subtilis ATCC 23857 after 18 hrs by CLSI based broth microdilution method; assay type: functional; conditions: ATCC 23857, 18 h
# [8] = system: Escherichia coli; test: Ratio of MIC for antibacterial activity against Escherichia coli ATCC 25922 after 15 passages to MIC for antibacterial activity against Escherichia coli ATCC 25922 incubated for 18 hrs; assay type: functional
# [9] = system: Escherichia coli; test: Antibacterial activity against Escherichia coli ATCC 25922 at 0.5 times MIC incubated for 18 hrs measured at 1 passages by CLSI based broth microdilution method; assay type: functional, organism-based
# [10] = system: Erythrocyte; test: Hemolytic activity in human RBC measured after 1 hr by microplate reader analysis; assay type: ADME, cell-based
# [11] = Selectivity index, ratio of MHC10 for human RBC to geometric mean of peptide MIC for gram positive bacteria; assay type: toxicity; conditions: human red blood cells, read-out: Selectivity Index
# [12] = Selectivity index, ratio of MHC10 for human RBC to geometric mean of peptide MIC for gram negative bacteria; assay type: toxicity; conditions: human red blood cells, read-out: Selectivity Index
# [13] = system: Escherichia coli; test: Antibacterial activity against Escherichia coli ATCC 25922 after 18 hrs in presence of NaCl by CLSI based broth microdilution method (reference value: 64 microM); assay type: functional; conditions: ATCC 25922, 18 h
# [14] = system: Escherichia coli; test: Antibacterial activity against Escherichia coli ATCC 25922 after 18 hrs in presence of KCl by CLSI based broth microdilution method (reference value: 64 microM); assay type: functional; conditions: ATCC 25922, 18 h
# [15] = system: Escherichia coli; test: Antibacterial activity against Escherichia coli ATCC 25922 after 18 hrs in presence of MgCl2 by CLSI based broth microdilution method (reference value: 64 microM); assay type: functional; conditions: ATCC 25922, 18 h
# [16] = system: Escherichia coli; test: Antibacterial activity against Escherichia coli ATCC 25922 after 18 hrs in presence of FeCl3 by CLSI based broth microdilution method (reference value: 64 microM); assay type: functional; conditions: ATCC 25922, 18 h
# [17] = system: Staphylococcus aureus; test: Antibacterial activity against Staphylococcus aureus ATCC 25923 after 18 hrs in presence of NaCl by CLSI based broth microdilution method (reference value: 64 microM); assay type: functional; conditions: ATCC 25923, 18 h
# [18] = system: Staphylococcus aureus; test: Antibacterial activity against Staphylococcus aureus ATCC 25923 after 18 hrs in presence of KCl by CLSI based broth microdilution method (reference value: 64 microM); assay type: functional; conditions: ATCC 25923, 18 h
# [19] = system: Staphylococcus aureus; test: Antibacterial activity against Staphylococcus aureus ATCC 25923 after 18 hrs in presence of MgCl2 by CLSI based broth microdilution method (reference value: 64 microM); assay type: functional; conditions: ATCC 25923, 18 h
# [20] = system: Staphylococcus aureus; test: Antibacterial activity against Staphylococcus aureus ATCC 25923 after 18 hrs in presence of FeCl3 by CLSI based broth microdilution method (reference value: 64 microM); assay type: functional; conditions: ATCC 25923, 18 h
# [21] = system: Escherichia coli; test: Potentiation of polymyxin B-induced antibacterial activity against Escherichia coli ATCC 25922 assessed as FICI after 18 hrs by checker board assay; assay type: functional
# [22] = system: Klebsiella pneumoniae; test: Potentiation of polymyxin B-induced antibacterial activity against Klebsiella pneumoniae ATCC 700603 assessed as FICI after 18 hrs by checker board assay; assay type: functional
# [23] = system: Pseudomonas aeruginosa; test: Potentiation of polymyxin B-induced antibacterial activity against Pseudomonas aeruginosa ATCC 27853 assessed as FICI after 18 hrs by checker board assay; assay type: functional
# [24] = system: Escherichia coli; test: Potentiation of rifampicin-induced antibacterial activity against Escherichia coli ATCC 25922 assessed as FICI after 18 hrs by checker board assay; assay type: functional
# [25] = system: Klebsiella pneumoniae; test: Potentiation of rifampicin-induced antibacterial activity against Klebsiella pneumoniae ATCC 700603 assessed as FICI after 18 hrs by checker board assay; assay type: functional
# [26] = system: Pseudomonas aeruginosa; test: Potentiation of rifampicin-induced antibacterial activity against Pseudomonas aeruginosa ATCC 27853 assessed as FICI after 18 hrs by checker board assay; assay type: functional
# [27] = system: Escherichia coli; test: Antimicrobial activity against Escherichia coli ATCC 25922 at 1 mM preincubated for 6 hrs in presence of 0.2 ug/ml trypsin and measured after 18 hrs by microplate reader analysis; assay type: functional, organism-based
# [28] = system: Escherichia coli; test: Antimicrobial activity against Escherichia coli ATCC 25922 at 1 mM preincubated for 6 hrs in presence of 2 ug/ml chymotrypsin and measured after 18 hrs by microplate reader analysis; assay type: functional, organism-based
# [29] = system: Escherichia coli; test: Antimicrobial activity against Escherichia coli ATCC 25922 preincubated for 1 hr in presence of 10% mouse serum and measured after 18 hrs by CLSI-based broth microdilution assay (reference value: 64 microM); assay type: functional
# [30] = system: Escherichia coli; test: Antimicrobial activity against Escherichia coli ATCC 25922 preincubated for 6 hrs in presence of 10% mouse serum and measured after 18 hrs by CLSI-based broth microdilution assay (reference value: 64 microM); assay type: functional
# [31] = system: Escherichia coli; test: Ratio of MIC for Escherichia coli ATCC 25922 preincubated for 1 hr in presence of 10% mouse serum and measured after 18 hrs to MIC for antibacterial activity against Escherichia coli ATCC 25922 after 18 hrs; assay type: functional
# [32] = system: Escherichia coli; test: Ratio of MIC for Escherichia coli ATCC 25922 preincubated for 6 hrs in presence of 10% mouse serum and measured after 18 hrs to MIC for antibacterial activity against Escherichia coli ATCC 25922 after 18 hrs; assay type: functional
# [33] = system: Escherichia coli; test: Disruption of membrane integrity in Escherichia coli ATCC 25922 assessed as membrane damage by measuring PI fluorescence at 4 times of MIC incubated for 1 hr by PI dye based flow cytometric analysis (reference value: 1.35%); assay type: functional
# [34] = system: Escherichia coli; test: Disruption of membrane integrity in Escherichia coli ATCC 25922 assessed as membrane damage by measuring PI fluorescence at 2 times of MIC incubated for 1 hr by PI dye based flow cytometric analysis (reference value: 1.35%); assay type: functional
# [35] = system: Escherichia coli; test: Induction of membrane disruption in Escherichia coli ATCC 25922 assessed as rough membrane surface at 4 times of MIC after 2 hrs by SEM analysis; assay type: functional, organism-based
# [36] = system: Escherichia coli; test: Induction of membrane disruption in Escherichia coli ATCC 25922 assessed as corrugated membrane surface at 4 times of MIC after 2 hrs by SEM analysis; assay type: functional, organism-based
# [37] = system: Escherichia coli; test: Induction of membrane disruption in Escherichia coli ATCC 25922 assessed as degeneration in membrane at 4 times of MIC after 2 hrs by SEM analysis; assay type: functional, organism-based
# [38] = system: Escherichia coli; test: Ratio of antibacterial activity against Escherichia coli ATCC 25922 in presence of NaCl to antibacterial activity against Escherichia coli ATCC 25922; assay type: functional
# [39] = system: Escherichia coli; test: Ratio of antibacterial activity against Escherichia coli ATCC 25922 in presence of KCl to antibacterial activity against Escherichia coli ATCC 25922; assay type: functional
# [40] = system: Escherichia coli; test: Ratio of antibacterial activity against Escherichia coli ATCC 25922 in presence of MgCl2 to antibacterial activity against Escherichia coli ATCC 25922; assay type: functional
# [41] = system: Escherichia coli; test: Ratio of antibacterial activity against Escherichia coli ATCC 25922 in presence of FeCl3 to antibacterial activity against Escherichia coli ATCC 25922; assay type: functional
# [42] = system: Staphylococcus aureus; test: Ratio of antibacterial activity against Staphylococcus aureus ATCC 25923 in presence of NaCl to antibacterial activity against Staphylococcus aureus ATCC 25923; assay type: functional
# [43] = system: Staphylococcus aureus; test: Ratio of antibacterial activity against Staphylococcus aureus ATCC 25923 in presence of KCl to antibacterial activity against Staphylococcus aureus ATCC 25923; assay type: functional
# [44] = system: Staphylococcus aureus; test: Ratio of antibacterial activity against Staphylococcus aureus ATCC 25923 in presence of MgCl2 to antibacterial activity against Staphylococcus aureus ATCC 25923; assay type: functional
# [45] = system: Staphylococcus aureus; test: Ratio of antibacterial activity against Staphylococcus aureus ATCC 25923 in presence of FeCl3 to antibacterial activity against Staphylococcus aureus ATCC 25923; assay type: functional
# [46] = system: Staphylococcus aureus; test: Antibiofilm activity against Staphylococcus aureus ATCC 25923 at 1 to 2 times of MIC after 24 hrs by crystal violet staining based assay; assay type: functional, organism-based
# [47] = system: Escherichia coli; test: Induction of membrane disruption in Escherichia coli ATCC 25922 assessed as fracture in membrane at 4 times of MIC after 2 hrs by SEM analysis; assay type: functional, organism-based
# [48] = system: Escherichia coli; test: Induction of ROS generation in Escherichia coli ATCC 25922; assay type: functional, organism-based
structure (smiles),measurement,setting,value
CO[C@H]1/C=C/O[C@@]2(C)Oc3c(C)c(O)c4c(O)c(c(/C=N/N5CCN(C)CC5)c(O)c4c3C2=O)NC(=O)/C(C)=C\C=C\[C@H](C)[C@H](O)[C@@H](C)[C@@H](O)[C@@H](C)[C@H](OC(C)=O)[C@@H]1C [RIFAMPIN],MIC,[1],4 µM
same,MIC,[2],2 µM
same,MIC,[3],32 µM
same,MIC,[4],32 µM
same,MIC,[5],< 1 µM
same,MIC,[6],< 1 µM
same,MIC,[7],< 1 µM
same,Ratio,[8],>32
same,Activity,[9],Active
CC[C@H](C)[C@H](NC(=O)[C@H](CCCNC(=N)N)NC(=O)[C@H](CCCCN)NC(=O)[C@H](CC(C)C)NC(=O)[C@H](CC(C)C)NC(=O)CN)C(=O)N[C@@H](CCCCN)C(=O)N[C@H](C(=O)N[C@@H](CC(C)C)C(=O)N[C@@H](CC(C)C)C(N)=O)[C@@H](C)O [ANOPLIN] (H-GLLKRIKTLL-NH2),MIC,[1],64 µM
same,MIC,[2],8 µM
same,MIC,[3],64 µM
same,MIC,[4],16 µM
same,MIC,[5],64 µM
same,MIC,[6],64 µM
same,MIC,[7],8 µM
same,MHC10,[10],> 256 µM
same,selectivity ratio,[11],11.3
same,selectivity ratio,[12],13.5
same,MIC,[13],128 µM
same,MIC,[14],32 µM
same,MIC,[15],32 µM
same,MIC,[16],32 µM
same,MIC,[17],> 128 µM
same,MIC,[18],64 µM
same,MIC,[19],> 128 µM
same,MIC,[20],128 µM
same,fractional inhibitory concentration index (FICI),[21],0.1875
same,fractional inhibitory concentration index (FICI),[22],0.3125
same,fractional inhibitory concentration index (FICI),[23],0.3125
same,fractional inhibitory concentration index (FICI),[24],0.125
same,fractional inhibitory concentration index (FICI),[25],0.125
same,fractional inhibitory concentration index (FICI),[26],0.1875
same,Activity,[27],inactive
same,Activity,[28],inactive
same,MIC,[29],64 µM
same,MIC,[30],> 128 µM
same,Ratio,[31],1
same,Ratio,[32],>2
same,Activity,[33],62.1%
same,Activity,[34],20.4%
same,Activity,[35],Active
same,Activity,[36],Active
same,Activity,[37],Active
same,Ratio,[38],2 - 4
same,Ratio,[39],2 - 4
same,Ratio,[40],2 - 4
same,Ratio,[41],2 - 4
same,Ratio,[42],2 - 4
same,Ratio,[43],2 - 4
same,Ratio,[44],2 - 4
same,Ratio,[45],2 - 4
same,inhibition,[46],Active
same,Activity,[47],Active
same,Activity,[48],inactive
